Calls of active or inactive are those of the source.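 The calls were made as follows: active = AC50 no more than tenfold above the top dose tested, or full inhibition at every dose with a flat fit (cut at about 19 µM in these data); inconclusive = flat curve fit with inhibition between 30% and 70%, or poor fit; inactive = AC50 more than tenfold above the top dose tested.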
Tested on: HMLE_sh_eGFP viability, CellTiter-Glo luminescence, 72 h
Experiment: viability loss of HMLE_sh_eGFP cells – cell-based, luminescence, counter-screen for HMLE_sh_ECad selective toxicity project, dose response (AID 463074);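 also: counterscreen control line to flag general toxicity for the HMLE_sh_ECad screen; potency for loss of viability as luminescence drops below DMSO wells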

Q: Which AC50 does the source give for `CCN(c1ccccc1)S(=O)(=O)c1cccc(C(=O)NCC(c2cccs2)N2CCOCC2)c1` (stereo not drawn) here?
A: > 19.5 µM (inactive)

Q: For `CCCCCc1cc(=O)oc2c(C(CCN3CCCC(C)C3)c3cc(OC)c(OC)c(OC)c3)c(OC)cc(OC)c12` (stereo not drawn), which AC50 is on record?
A: 7.18 µM

Q: How did the AC50 turn out when `NS(=O)(=O)c1ccc(N=Cc2c(O)n(C3CCCCC3)c(=O)n(C3CCCCC3)c2=O)cc1` was run?
A: 3.81 µM

Q: For `O=[N+]([O-])c1ccc(Cl)c(/C=N/n2c(C3CCCCC3)n[nH]c2=S)c1`, which AC50 is on record?
A: > 19.5 µM (inactive)

Q: For `COc1ccc(C)cc1NC(=O)CSc1nnc(COc2ccc(Cl)cc2)n1Cc1ccco1`, which AC50 is on record?
A: 8.28 µM

Q: Which AC50 does the source give for `C[C@@H]1CN([C@@H](C)CO)C(=O)Cc2cc(NC(=O)Nc3ccc(C(F)(F)F)cc3)ccc2O[C@@H]1CN(C)S(=O)(=O)c1ccc(Cl)cc1` here?
A: 1.78 µM

Q: Which AC50 does the source give for `COc1cc(CNCCc2ccccc2)cc(Cl)c1OCc1ccccc1` here?
A: 4.84 µM

Q: Which AC50 does the source give for `O=C(NCCCN1CCOCC1)c1ccc(Sc2ccc(Br)cc2)c([N+](=O)[O-])c1` here?
A: < 0.16 µM

Q: With `O=[N+]([O-])c1ccc(COc2ccc(-c3[nH]ncc3-c3ccccc3)c(O)c2)cc1` as the compound, how does the AC50 read?
A: 8.38 µM

Q: With `COc1ccc(NS(=O)(=O)c2cccc(C(=O)N/N=C(\C)c3ccc(-n4ccnc4)cc3)c2)cc1` as the compound, how does the AC50 read?
A: > 19.5 µM (inactive)

Q: `Cc1ccccc1/C=N/Nc1ccnc2cc(Cl)ccc12` was tested. Which AC50 did it give?
A: 4.44 µM

Q: `CCOC(=O)c1c(NC(=O)CSc2nc3ccc(C)cc3[nH]2)sc2c1CC(C)(C)NC2(C)C` was tested. Which AC50 did it give?
A: 6.64 µM

Q: How did the AC50 turn out when `COc1ccc(Cn2nnnc2C(C(C)C)N(Cc2ccco2)Cc2cccs2)cc1` (stereo not drawn) was run?
A: > 19.5 µM (inactive)

Q: How did the AC50 turn out when `O=C(Nc1ccncc1)c1cc(-c2cccc(Br)c2)nc2ccccc12` was run?
A: 5.99 µM

Q: Which AC50 does the source give for `Nc1nc(Nc2ccccc2)nc(NC2CCCCC2)c1[N+](=O)[O-]` here?
A: 6.81 µM

Q: How did the AC50 turn out when `Cc1ccc(-c2csc3ncnc(NS(=O)(=O)c4ccc(Cl)cc4)c23)cc1` was run?
A: 11.6 µM

Q: How did the AC50 turn out when `CCOC(=O)C1=C(c2ccccc2)N=c2s/c(=C\c3cccc(O)c3)c(=O)n2C1c1cccs1` (stereo not drawn) was run?
A: 3.39 µM

Q: How did the AC50 turn out when `O=[N+]([O-])c1cccc(-c2cc(-c3cc(Br)ccc3O)[nH]n2)c1` was run?
A: 7.53 µM

Q: How did the AC50 turn out when `Cc1snc(S(=O)(=O)/C(C#N)=N/Nc2ccc(C(F)(F)F)cc2)c1C#N` was run?
A: 19.7 µM

Q: With `Cc1oc2c(F)c(F)c(F)c(F)c2c1S(=O)(=O)Nc1cccc(C(F)(F)F)c1` as the compound, how does the AC50 read?
A: 4.95 µM

Q: `Cc1cccc(-c2oc3ccccc3c2C#CCCCCO)c1` was tested. Which AC50 did it give?
A: 7.62 µM

Q: `O=c1c2ccccc2nc(/C=C/c2ccccc2F)n1-c1ccccc1O` was tested. Which AC50 did it give?
A: 6.44 µM

Q: How did the AC50 turn out when `COC(=O)c1c(NC(=O)COc2ccc(Cl)cc2Cl)sc2c1CC(C)(C)NC2(C)C` was run?
A: 6.62 µM

Q: With `Cc1nn(CCc2nn[nH]n2)c2nc(-c3ccc(C4CCCCC4)cc3)cc(C(F)(F)F)c12` as the compound, how does the AC50 read?
A: 2.7 µM

Q: `CCOC(=O)c1c(NC(C)=O)sc2c1CCC(C=O)=C2Sc1ccccc1` was tested. Which AC50 did it give?
A: 3.63 µM

Q: With `CCN1C(=O)C(=Cc2cccc(OC)c2Oc2ccc([N+](=O)[O-])cc2[N+](=O)[O-])SC1=S` as the compound, how does the AC50 read?
A: 2.27 µM

Q: Which AC50 does the source give for `O=C(NCCC1=CCCCC1)c1coc(=O)c(Br)c1` here?
A: 11.7 µM

Q: Which AC50 does the source give for `C=CCn1cccc(/C=C/C(=O)c2ccc(C(C)(C)C)cc2)c1=S` here?
A: 6.19 µM

Q: For `Cc1cc2c(cc1C)C(c1ccccc1OC(C)C)CC(=O)N2` (stereo not drawn), which AC50 is on record?
A: 1.54 µM

Q: Which AC50 does the source give for `CC1S/C(=N/N=C/c2cccc([N+](=O)[O-])c2)NC1=O` (stereo not drawn) here?
A: 3.48 µM

Q: Which AC50 does the source give for `S=C(Nc1cc(Cl)cc(Cl)c1)NC1CCN(Cc2ccccc2)CC1` here?
A: 4.23 µM

Q: For `COc1ccc(C(=O)c2ccc(OC)cc2OC)cc1`, which AC50 is on record?
A: 5.49 µM

Q: For `O=c1[nH]c(CN2CCN(c3ccccn3)CC2)nc2c(Br)cc(Br)cc12`, which AC50 is on record?
A: 10.3 µM

Q: `CCc1ccc(CCC(=O)Nc2ncc(Cc3ccccc3Cl)s2)o1` was tested. Which AC50 did it give?
A: 0.322 µM

Q: How did the AC50 turn out when `COC(=O)c1ccccc1NC(=O)c1nc(S(=O)(=O)Cc2ccccc2)ncc1Cl` was run?
A: 3.25 µM

Q: Which AC50 does the source give for `COc1ccc(-c2sc3ccccc3c2-c2ccc(OCCN3CCCCC3)cc2)cc1` here?
A: 1.4 µM

Q: Which AC50 does the source give for `CC(C)(C)c1ccc(/C=C(\c2nc3ccccc3[nH]2)S(=O)(=O)c2ccccc2)cc1` here?
A: 1.42 µM

Q: Which AC50 does the source give for `COc1ccc(-c2sc3ccc(N4CCOCC4)cc3c2C#CC(C)(C)O)cc1` here?
A: 1.3 µM

Q: `CC(C)(C)c1ccc(Oc2ccc(N)cc2)cc1` was tested. Which AC50 did it give?
A: 13.5 µM

Q: Which AC50 does the source give for `CCOc1ccccc1N(C(=O)Nc1ccc(Cl)cc1)C1=NCCS1` here?
A: > 19.5 µM (inactive)

Q: Which AC50 does the source give for `C=CCn1c(=O)c(C(=O)NCCc2ccccc2)c(O)c2ccccc21` here?
A: 5.77 µM

Q: For `O=C(Nc1ccc(F)cc1)c1nc(S(=O)(=O)Cc2ccccc2)ncc1Cl`, which AC50 is on record?
A: 7.15 µM

Q: With `CC(C)Oc1ccc(CNC(=O)CC(c2ccccc2)c2cc(Cl)ccc2O)cc1` (stereo not drawn) as the compound, how does the AC50 read?
A: 5.58 µM

Q: How did the AC50 turn out when `COc1ccccc1-c1sc2cc3c(cc2c1C#Cc1cncn1C)OCO3` was run?
A: 5.73 µM

Q: `COc1ccc(-c2sc3ccccc3c2C#CC2(O)CCCCC2)cc1` was tested. Which AC50 did it give?
A: 5.38 µM

Q: `Cc1cc(C)c2[nH]c(=O)c(CN(Cc3cccs3)C(=S)NCc3ccco3)cc2c1` was tested. Which AC50 did it give?
A: > 19.5 µM (inactive)

Q: With `C(=N\Nc1ncnc2sc3c(c12)CCC3)/c1cccs1` as the compound, how does the AC50 read?
A: 7.4 µM

Q: `Cc1cc2nnc(SCC(=O)NCc3ccco3)n2c2ccccc12` was tested. Which AC50 did it give?
A: 4.5 µM

Q: `CC(C)(C)c1ccc(C(=O)Nc2ccc(N3CCOCC3)cc2)cc1` was tested. Which AC50 did it give?
A: 17.3 µM

Q: For `O=C(/C=C/c1cc2ccccc2o1)c1ccccc1O`, which AC50 is on record?
A: 10.1 µM

Q: With `CC(C)C[C@@H](CO)N(Cc1ccccc1)S(=O)(=O)N(Cc1ccccc1)[C@H](CO)CC(C)C` as the compound, how does the AC50 read?
A: 7.24 µM

Q: `COc1ccc(-c2cc(C3CCN(c4ccc(C(C)=O)cc4[N+](=O)[O-])CC3)[nH]n2)cc1` was tested. Which AC50 did it give?
A: 8.83 µM

Q: `Fc1cccc(-n2c(-c3cccs3)nc3nc4ccccc4nc32)c1` was tested. Which AC50 did it give?
A: 2.32 µM

Q: `CCN1CCN(Cc2ccc(NC(=O)c3ccc(C)c(NC(=O)c4cc(-c5ccc(Br)cc5)n[nH]4)c3)cc2C(F)(F)F)CC1` was tested. Which AC50 did it give?
A: 11.6 µM

Q: `COc1ccc(-c2cc(C(=O)N3CC4(C)CC3CC(C)(C)C4)no2)cc1OC` (stereo not drawn) was tested. Which AC50 did it give?
A: 10.6 µM

Q: With `COc1ccc(-c2c(-c3cc(OC)cc(OC)c3)n(C)c3ccc(-c4cc(F)cc(OC)c4)cc23)cc1` as the compound, how does the AC50 read?
A: > 19.5 µM (inactive)

Q: How did the AC50 turn out when `CCC/C=C(\CCC)C(NS(=O)(=O)c1ccc(C(F)(F)F)cc1)c1ccccc1` (stereo not drawn) was run?
A: 3.93 µM

Q: With `CCCc1ccc(-c2cc(NC(=O)CSc3nnc(N)s3)n(-c3ccccc3)n2)cc1` as the compound, how does the AC50 read?
A: 6.67 µM

Q: For `Cn1nnnc1Sc1ncnc2scc(-c3ccc(C(F)(F)F)cc3)c12`, which AC50 is on record?
A: 3.03 µM

Q: For `CC1=C(C(=O)OC2CCCCC2)C(c2ccc(C)o2)C2=C(CC(C)(C)CC2=O)N1` (stereo not drawn), which AC50 is on record?
A: 12.9 µM

Q: How did the AC50 turn out when `CC(C)C1C(c2ccccc2)N(C)C(c2ccccc2)CC1(O)c1ccccc1` (stereo not drawn) was run?
A: 3.35 µM

Q: For `OCCCCC#Cc1c(-c2ccsc2)sc2ccccc12`, which AC50 is on record?
A: 5.56 µM

Q: For `CCCCCCC[C@@H](C/C=C/CCC(=O)N(C)C/C(=C/Cl)C/C(=C\C(=O)N1CC(OC)=CC1=O)OC)OC`, which AC50 is on record?
A: 5.38 µM

Q: Which AC50 does the source give for `CCCCCCCC/C=C\CCCCCCCC(=O)NCCc1ccc(O)c(O)c1` here?
A: 4.61 µM

Q: Which AC50 does the source give for `CCOc1ccccc1CNc1ncnc2ccc(-c3c(C)noc3C)cc12` here?
A: 6.05 µM

Q: `O=C(NNC(=O)c1cc(Cl)ccc1O)c1ccc(NS(=O)(=O)c2cccs2)cc1` was tested. Which AC50 did it give?
A: 8.13 µM

Q: With `COc1ccc(CN2C(=O)c3cccnc3C2Nc2cc(Cl)ccc2OC)cc1` (stereo not drawn) as the compound, how does the AC50 read?
A: > 19.5 µM (inactive)

Q: For `COc1cccc(-c2cc3nc4c(c(N5CCC6(CC5)OCCO6)n3n2)CCCC4)c1`, which AC50 is on record?
A: 9.81 µM

Q: `O=C(Nc1ccc(N2CCN(Cc3ccccc3F)CC2)cc1)c1ccc([N+](=O)[O-])o1` was tested. Which AC50 did it give?
A: 1.94 µM

Q: `CC(C)(C)c1cc(C(=O)NNc2cccc(Cl)c2)n(Cc2ccccc2)n1` was tested. Which AC50 did it give?
A: 2.07 µM

Q: For `COc1ccc(-c2nn(-c3ccccc3)cc2/C=C2/SC(=S)N(CCC(=O)O)C2=O)c(C)c1`, which AC50 is on record?
A: 8.18 µM

Q: For `Cc1nn(Cc2ccccc2)c(C)c1C(=O)OCC(=O)c1cc(C)n(CC(F)(F)F)c1C`, which AC50 is on record?
A: 14 µM

Q: Which AC50 does the source give for `Cc1cc(C)c(O)c(-c2n[nH]c3c2C(c2cccc(O)c2)N(Cc2ccco2)C3=O)c1` (stereo not drawn) here?
A: 6.73 µM

From PubChem BioAssay AID463074 (Broad Institute, 2010)
